pIC50: −log10 of the molar value.
Legend:
[1] = molecular target: T1, L-type calcium channel (LTCC) (Rattus norvegicus, UniProt P22002); assay: FLIPR calcium mobilization assay for L-type calcium channel; type: cell-based; conditions: calcium mobilization in vitro assay, HEK293 cells expressing recombinant rat LTCC subunits (α1c, α2δ, β1), 90 mM KCl
T1 construct: expressed in transfected cells; pcDNA6.2DEST α1c, pcDNA3.2DEST β1, pcDNA3.1-Zeo α2δ)
Experimental: Recombinant human embryonal kidney cells (HEK293, ATCC) stably transfected with either N-type calcium channel (NTCC) subunits (α1b, α2δ, and β3) or L-type calcium channel (LTCC) subunits (α1c, α2δ, and β1) were routinely cultured in growth medium consisting of Dulbecco's Modified Eagles Medium containing 10% FBS, 100 U/mL penicillin, 100 μg/mL streptomycin, 4 mM L-glutamine, 500 μg/mL geneticin (G418), 20 μg/mL Blasticidin S (InVivogen, San Diego, Calif.) and 500 μg/mL zeocin (InVivogen).
FLIPR Calcium Mobilization Assay for L-type Calcium Channel. One day prior to performing this assay, HEK293 cells stably expressing recombinant rat L-type calcium channel (LTCC) subunits (α1c, α2δ, and β1) were trypsinized, then seeded on poly-D-lysine-coated 96-well clear-bottom black plates (Becton Dickinson, Franklin Lakes, N.J.) at 75,000 cells/well. On the day of the assay, the plates were washed with LTCC wash buffer (127 mM NaCl, 2 mM MgCl2, 700 μM NaH2PO4, 5 mM CaCl2, 5 mM NaHCO3, 8 mM HEPES, 10 mM glucose, pH 7.4), then loaded with 0.1 mL of LTCC wash buffer containing Fluo-4 (3 μM final concentration, Molecular Probes, Eugene, Oreg.). After 1 hour, the cells were washed with 0.1 mL LTCC wash buffer and resuspended in 0.05 mL LTCC assay buffer (same composition as LTCC wash buffer). Plates were then transferred to a FLIPR^96 for assay. The FLIPR measured basal Fluo-4 fluorescence for 15 seconds, then added 0.05 mL of each compound tested diluted in LTCC assay buffer at final concentrations ranging from about 846 pM to about 17 μM. Fluo-4 fluorescence was then measured for 5 minutes. 0.1 mL KCl agonist dissolved in LTCC assay buffer was then added to the cells to produce a final concentration of 90 mM KCl, and fluorescence was measured for another 45 seconds. Data were collected over the entire time course and analyzed using Excel, Graph Pad Prism, or an in-house regression analysis software.
L-type Recombinant Cell Line Development. L-type calcium channel expressing HEK-293 cells were created in two stages. Stage 1 was created as follows. The rat α1c, and β1 cDNA expression constructs (2.5 μg each) were co-transfected into human embryonic kidney (HEK-293) cells by Lipofectamine Plus reagent (Invitrogen), as per manufacturer's instructions. 24 hours later, cells were split in limiting dilution into multiple 96-well plates in selection media containing 20 μg/mL blasticidin and 500 μg/mL geneticin, and incubated for 3 weeks at 37° C., 5% CO2, 95% humidity. […] The FLIPR measured basal Fluo-4 fluorescence for 315 seconds, then added 0.1 mL KCl agonist dissolved in LTCC buffer and measured fluorescence for another 45 seconds. […] Data were collected over the entire time course and analyzed using Excel, Graph Pad Prism, or Activity Base software. […]

[2] = molecular target: T2, N-type calcium channel (NTCC) (Homo sapiens, UniProt Q00975); assay: FLIPR calcium mobilization assay for N-type calcium channel; type: cell-based; conditions: calcium mobilization in vitro assay, differentiated IMR32 cells, 90 mM KCl, 5 μM nitrendipine
T2 construct: endogenous in cells; host or cells: IMR32 cells (ATCC), differentiated with dibutyryl cAMP and bromodeoxyuridine
Experimental: Cell maintenance and differentiation. Unless noted otherwise, cell culture reagents were purchased from Mediatech of Herndon, Md. IMR32 cells (American Type Culture Collection, ATCC, Manassas, Va.) were routinely cultured in growth medium consisting of minimum essential medium containing 10% fetal bovine serum (FBS, Hyclone, Logan, Utah), 100 U/mL penicillin, 100 μg/mL streptomycin, 2 mM L-glutamine, 1 mM sodium pyruvate, and 1×MEM non-essential amino acids. 80-90% confluent flasks of cells were differentiated using the following differentiation medium: Growth medium plus 1 mM dibutyryl cyclic AMP (Sigma, St. Louis, Mo.), and 2.5 μM bromodeoxyuridine (Sigma). Cells were differentiated for 8 days by replacing differentiation medium every 2-3 days.
FLIPR Calcium Mobilization Assay for N-type Calcium Channel. One day prior to performing this assay, differentiated IMR32 cells were treated with 1× CellStripper, and seeded on poly-D-lysine-coated 96-well clear-bottom black plates (Becton Dickinson, Franklin Lakes, N.J.) at 200,000 cells/well. On the day of the assay, the cell plates were washed with IMR32 buffer (127 mM NaCl, 1 mM KCl, 2 mM MgCl2, 700 μM NaH2PO4, 5 mM CaCl2, 5 mM NaHCO3, 8 mM HEPES, 10 mM glucose, pH 7.4), then pre-stimulated with KCl and loaded as follows: 0.05 mL of IMR32 buffer, 0.05 mL of each compound tested diluted in IMR32 buffer containing 20 μM nitrendipine (Sigma), and 0.1 mL KCl dissolved in IMR32 buffer, plus Fluo-4 were added (3 μM final concentration, Molecular Probes, Eugene, Oreg.). Final test compound concentrations ranged from about 846 μM to about 17 μM, final nitrendipine concentration was 5 μM, and final KCl concentration was 90 mM. After 1 hour, the cells were washed twice with 0.05 mL of each compound tested in nitrendipine-containing IMR32 buffer (no KCl or Fluo-4), and then replaced with 0.1 mL of each compound tested in nitrendipine-containing IMR32 buffer. Plates were then transferred to a Fluorimetric Imaging Plate Reader (FLIPR^96, Molecular Devices, Inc., Sunnyvale, Calif.) for assay. The FLIPR measured basal Fluo-4 fluorescence for 315 seconds (i.e., 5 minutes and 15 seconds), then added 0.1 mL KCl agonist dissolved in IMR32 buffer and measured fluorescence for another 45 seconds. Final test compound concentrations on the cells after FLIPR read ranged from about 846 pM to about 17 μM, final nitrendipine concentration was 5 μM, and final KCl concentration was 90 mM. Data were collected over the entire time course and analyzed using Excel, Graph Pad Prism (version 3.02, Graph Pad, San Diego, Calif.), or an in-house non-linear regression analysis software.

T1 sequence (P22002 whole entry): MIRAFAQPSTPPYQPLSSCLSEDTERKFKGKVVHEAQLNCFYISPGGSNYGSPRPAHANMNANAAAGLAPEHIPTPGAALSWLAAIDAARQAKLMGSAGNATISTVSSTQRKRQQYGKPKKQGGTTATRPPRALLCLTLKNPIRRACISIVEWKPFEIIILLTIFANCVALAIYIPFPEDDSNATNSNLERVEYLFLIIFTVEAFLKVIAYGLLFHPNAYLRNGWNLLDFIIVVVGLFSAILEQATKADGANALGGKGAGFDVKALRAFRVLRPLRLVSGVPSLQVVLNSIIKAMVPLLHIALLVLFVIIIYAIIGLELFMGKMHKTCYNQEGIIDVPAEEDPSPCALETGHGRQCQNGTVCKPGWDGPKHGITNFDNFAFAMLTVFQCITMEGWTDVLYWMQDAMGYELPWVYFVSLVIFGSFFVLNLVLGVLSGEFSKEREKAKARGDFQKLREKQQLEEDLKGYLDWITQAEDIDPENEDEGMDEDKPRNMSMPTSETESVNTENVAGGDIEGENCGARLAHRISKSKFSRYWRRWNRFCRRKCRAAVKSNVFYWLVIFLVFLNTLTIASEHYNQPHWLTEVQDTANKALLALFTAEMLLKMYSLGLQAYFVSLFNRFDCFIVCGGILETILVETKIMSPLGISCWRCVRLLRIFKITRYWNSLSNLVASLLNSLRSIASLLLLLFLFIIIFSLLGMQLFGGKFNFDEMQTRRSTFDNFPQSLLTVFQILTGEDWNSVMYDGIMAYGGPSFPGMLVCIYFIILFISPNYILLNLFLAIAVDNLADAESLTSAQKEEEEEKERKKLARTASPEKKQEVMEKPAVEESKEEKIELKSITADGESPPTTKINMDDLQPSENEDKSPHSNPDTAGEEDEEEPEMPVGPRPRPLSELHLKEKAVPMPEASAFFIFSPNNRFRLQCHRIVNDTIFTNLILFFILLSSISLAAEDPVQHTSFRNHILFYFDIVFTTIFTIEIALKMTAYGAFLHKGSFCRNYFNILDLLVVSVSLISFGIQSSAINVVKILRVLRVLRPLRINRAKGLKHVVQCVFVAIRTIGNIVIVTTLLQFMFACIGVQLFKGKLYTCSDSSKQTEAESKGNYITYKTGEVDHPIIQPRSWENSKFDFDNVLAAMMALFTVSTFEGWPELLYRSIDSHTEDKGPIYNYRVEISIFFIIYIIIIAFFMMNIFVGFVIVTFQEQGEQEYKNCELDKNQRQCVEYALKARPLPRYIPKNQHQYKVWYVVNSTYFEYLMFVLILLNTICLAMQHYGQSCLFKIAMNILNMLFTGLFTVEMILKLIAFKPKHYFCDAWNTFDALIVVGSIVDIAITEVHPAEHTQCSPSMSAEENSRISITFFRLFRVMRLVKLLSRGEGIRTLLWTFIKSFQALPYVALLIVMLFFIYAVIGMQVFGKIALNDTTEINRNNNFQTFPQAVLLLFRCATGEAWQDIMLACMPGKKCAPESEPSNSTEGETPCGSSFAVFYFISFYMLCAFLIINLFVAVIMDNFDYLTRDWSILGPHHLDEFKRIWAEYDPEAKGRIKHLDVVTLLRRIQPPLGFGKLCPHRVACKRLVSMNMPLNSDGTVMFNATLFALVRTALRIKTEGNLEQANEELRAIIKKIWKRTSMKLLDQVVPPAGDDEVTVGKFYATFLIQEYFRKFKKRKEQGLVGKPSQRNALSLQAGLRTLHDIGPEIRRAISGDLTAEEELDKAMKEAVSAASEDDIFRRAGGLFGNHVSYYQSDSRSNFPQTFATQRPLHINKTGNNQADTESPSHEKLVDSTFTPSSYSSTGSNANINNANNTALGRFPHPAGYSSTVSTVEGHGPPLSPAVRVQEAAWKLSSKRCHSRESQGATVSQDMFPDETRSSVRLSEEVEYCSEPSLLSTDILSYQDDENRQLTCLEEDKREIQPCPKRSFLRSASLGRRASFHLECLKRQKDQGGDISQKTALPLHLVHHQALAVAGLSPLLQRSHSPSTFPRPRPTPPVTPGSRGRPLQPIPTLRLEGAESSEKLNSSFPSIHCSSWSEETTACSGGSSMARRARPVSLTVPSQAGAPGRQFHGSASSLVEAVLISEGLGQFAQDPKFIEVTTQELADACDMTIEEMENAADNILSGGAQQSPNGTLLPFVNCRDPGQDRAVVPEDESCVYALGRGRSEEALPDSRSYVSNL
T1 sequence (P54290 25-944 partner): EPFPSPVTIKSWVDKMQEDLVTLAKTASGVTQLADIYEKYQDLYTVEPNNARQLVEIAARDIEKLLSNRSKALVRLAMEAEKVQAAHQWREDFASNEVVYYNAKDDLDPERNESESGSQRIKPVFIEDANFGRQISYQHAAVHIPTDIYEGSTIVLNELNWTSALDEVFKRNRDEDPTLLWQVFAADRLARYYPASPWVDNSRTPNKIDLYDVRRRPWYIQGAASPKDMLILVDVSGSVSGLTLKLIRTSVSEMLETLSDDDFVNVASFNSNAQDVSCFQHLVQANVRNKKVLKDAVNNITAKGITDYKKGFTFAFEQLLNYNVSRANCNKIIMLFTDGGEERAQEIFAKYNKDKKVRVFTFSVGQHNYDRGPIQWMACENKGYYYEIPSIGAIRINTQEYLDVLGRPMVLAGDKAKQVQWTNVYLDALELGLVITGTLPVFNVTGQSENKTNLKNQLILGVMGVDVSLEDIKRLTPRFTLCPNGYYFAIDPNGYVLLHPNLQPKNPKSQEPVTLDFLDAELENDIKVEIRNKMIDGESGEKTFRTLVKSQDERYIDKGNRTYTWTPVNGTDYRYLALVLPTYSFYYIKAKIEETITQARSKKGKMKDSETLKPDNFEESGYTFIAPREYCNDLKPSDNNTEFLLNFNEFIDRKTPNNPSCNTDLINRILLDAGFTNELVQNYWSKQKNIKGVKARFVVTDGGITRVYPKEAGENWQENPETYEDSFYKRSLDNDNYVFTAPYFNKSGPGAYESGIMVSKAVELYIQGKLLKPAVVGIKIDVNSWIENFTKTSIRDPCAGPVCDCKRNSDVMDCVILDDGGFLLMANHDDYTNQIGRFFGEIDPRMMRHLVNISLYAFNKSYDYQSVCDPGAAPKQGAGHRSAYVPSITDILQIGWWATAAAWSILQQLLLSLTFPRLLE
T1 sequence (P54290 945-1091 partner): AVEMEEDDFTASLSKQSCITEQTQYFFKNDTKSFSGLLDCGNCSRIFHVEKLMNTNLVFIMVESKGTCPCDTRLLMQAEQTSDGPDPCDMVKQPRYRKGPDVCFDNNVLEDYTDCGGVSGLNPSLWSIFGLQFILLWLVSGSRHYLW
T1 sequence (P54283 whole entry partner): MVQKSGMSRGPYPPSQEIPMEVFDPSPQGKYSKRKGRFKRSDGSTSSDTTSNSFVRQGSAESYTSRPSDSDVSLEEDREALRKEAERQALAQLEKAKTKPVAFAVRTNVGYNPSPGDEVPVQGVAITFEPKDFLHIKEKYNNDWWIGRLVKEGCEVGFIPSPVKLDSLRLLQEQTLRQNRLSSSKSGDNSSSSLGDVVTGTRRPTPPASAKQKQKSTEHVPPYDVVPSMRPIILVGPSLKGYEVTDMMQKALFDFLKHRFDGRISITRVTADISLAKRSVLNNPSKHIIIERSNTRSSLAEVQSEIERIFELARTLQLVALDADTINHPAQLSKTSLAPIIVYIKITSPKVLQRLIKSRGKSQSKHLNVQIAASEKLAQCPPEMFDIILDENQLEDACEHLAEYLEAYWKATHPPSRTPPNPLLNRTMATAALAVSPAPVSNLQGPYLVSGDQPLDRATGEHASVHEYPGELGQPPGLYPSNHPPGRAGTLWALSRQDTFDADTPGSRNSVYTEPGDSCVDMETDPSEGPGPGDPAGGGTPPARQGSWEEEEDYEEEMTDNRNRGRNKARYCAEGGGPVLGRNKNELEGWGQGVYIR

| Compound | pIC50 [1] | pIC50 [2] |
| --- | --- | --- |
| O=C(CNC1CCN(S(=O)(=O)c2cccc(C(F)(F)F)c2)C1)Nc1ccc(F)cc1 (stereo not drawn) [Compound 10, N-(4-Fluorophenyl)-2-[1-(3-trifluoromethylbenzenesulfonyl)-pyrrolidin-3-ylamino]-acetamide] | 5.22 | 6.33 |
| O=C(CN(C1CC1)C1CCN(S(=O)(=O)c2cccc(C(F)(F)F)c2)CC1)Nc1ccc(F)cc1 [Compound 14, 2-{Cyclopropyl-[1-(3-trifluoromethylbenzenesulfonyl)-piperidin-4-yl]amino}-N-(4-fluorophenyl)acetamide] | 5.03 | 6.10 |

The next lines start with the values.

| pIC50 [1] | pIC50 [2] | Compound |
| --- | --- | --- |
| < 4.70 | 6.34 | O=C(CNC1CCN(S(=O)(=O)c2cccc(C(F)(F)F)c2)CC1)Nc1ccc(F)cc1 [Compound 6, N-(4-Fluorophenyl)-2-[1-(3-trifluoromethyl-benzenesulfonyl)-piperidin-4-ylamino]acetamide] |
| < 4.70 | 6.13 | O=C(CNC1CCN(S(=O)(=O)c2cccc(C(F)(F)F)c2)CC1)Nc1cc(C(F)(F)F)cc(C(F)(F)F)c1 [Compound 18, N-(3,5-Bis-(trifluoromethyl)phenyl)-2-[1-(3-trifluoromethyl-benzenesulfonyl)piperidin-4-ylamino]acetamide] |
|  | 5.89 | O=C(CC(=O)NC1CCN(S(=O)(=O)c2cccc(C(F)(F)F)c2)CC1)Nc1ccc(F)cc1F [Compound 23, N-(2,4-Difluorophenyl)-N′-[1-(3-trifluoromethylbenzenesulfonyl)-piperidin-4-yl]malonamide] |
